Test results taken from patent publication US12564582B2 (Prilenia Neurotherapeutics Ltd., priority 2016, dated 2026).
Like-named read-outs stand apart in the source and are kept apart here.

Tests used:
[1] = system: patients with Huntington's disease; conditions: 45 mg b.i.d, pooled MermaiHD, HART and Pride-HD, BL dystonia ≥4
L-DOPA-induced dystonia = system: L-DOPA-induced dystonia
Description: Data are median (FIG. 19A) with individual values (FIG. 19BB). N=8 for all treatment groups. */**/*** represents P<0.05, P<0.01 or P<0.001 cf. vehicle-treatment. 2-way RM ANOVA (FIG. 19A) with Holm-Sidak's test or Friedman test with Dunn's test (FIG. 19B).

[2] = system: patients with Huntington's disease
Description: In the UHDRS, maximal dystonia was scored from 0 (absent) to 4 (marked/prolonged) on each of the following items: trunk, right upper extremity, left upper extremity, right lower extremity, and left lower extremity. Maximal dystonia is the sum of all scores.

Compound: CCCN1CCC(c2cccc(S(C)(=O)=O)c2)CC1 [pridopidine, 4-[3-(methylsulfonyl)phenyl]-1-propyl-piperidine]
- UHDRS Dystonia score compared to placebo ([1]; Week 26): statistically significant improvement
- UHDRS Dystonia score compared to placebo ([1]; Week 52): trend toward this improvement was maintained
- levels of dystonia, significance cf. LDh-vehicle (L-DOPA-induced dystonia; 15 mg/kg, 1 h epoch 1): ns
- levels of dystonia, significance cf. LDh-vehicle (L-DOPA-induced dystonia; 15 mg/kg, 1 h epoch 2): ns
- levels of dystonia, significance cf. LDh-vehicle (L-DOPA-induced dystonia; 15 mg/kg, 1 h epoch 3): ns
- levels of dystonia, significance cf. LDh-vehicle (L-DOPA-induced dystonia; 15 mg/kg, 1 h epoch 4): ns
- levels of dystonia, significance cf. LDh-vehicle (L-DOPA-induced dystonia; 15 mg/kg, 1 h epoch 5): ns
- levels of dystonia, significance cf. LDh-vehicle (L-DOPA-induced dystonia; 15 mg/kg, 1 h epoch 6): ns
- levels of dystonia, significance cf. LDh-vehicle (L-DOPA-induced dystonia; 20 mg/kg, 1 h epoch 1): * (P<0.05)
- levels of dystonia, significance cf. LDh-vehicle (L-DOPA-induced dystonia; 20 mg/kg, 1 h epoch 2): ns
- levels of dystonia, significance cf. LDh-vehicle (L-DOPA-induced dystonia; 20 mg/kg, 1 h epoch 3): ns
- levels of dystonia, significance cf. LDh-vehicle (L-DOPA-induced dystonia; 20 mg/kg, 1 h epoch 4): ns
- levels of dystonia, significance cf. LDh-vehicle (L-DOPA-induced dystonia; 20 mg/kg, 1 h epoch 5): ns
- levels of dystonia, significance cf. LDh-vehicle (L-DOPA-induced dystonia; 20 mg/kg, 1 h epoch 6): ns
- median levels of dystonia (L-DOPA-induced dystonia; 20 mg/kg, first hour): between moderate and marked
- levels of dystonia, significance cf. LDh-vehicle (L-DOPA-induced dystonia; 30 mg/kg, 1 h epoch 1): ** (P<0.01)
- levels of dystonia, significance cf. LDh-vehicle (L-DOPA-induced dystonia; 30 mg/kg, 1 h epoch 2): *** (P<0.001)
- levels of dystonia, significance cf. LDh-vehicle (L-DOPA-induced dystonia; 30 mg/kg, 1 h epoch 3): * (P<0.05)
- levels of dystonia, significance cf. LDh-vehicle (L-DOPA-induced dystonia; 30 mg/kg, 1 h epoch 4): ns
- levels of dystonia, significance cf. LDh-vehicle (L-DOPA-induced dystonia; 30 mg/kg, 1 h epoch 5): ns
- levels of dystonia, significance cf. LDh-vehicle (L-DOPA-induced dystonia; 30 mg/kg, 1 h epoch 6): ns
- median levels of dystonia (printed dyskinesia) (L-DOPA-induced dystonia; 30 mg/kg, cumulated over 0-2 h): below mild (non-disabling)
- reduction of median levels of dystonia compared to LDh-vehicle (L-DOPA-induced dystonia; 30 mg/kg, cumulated over 0-2 h): 72%
- median levels of dystonia (L-DOPA-induced dystonia; 30 mg/kg, first, second and third hours): mild to moderate
- levels of L-DOPA-induced dystonia evoked by LDh (L-DOPA-induced dystonia; 15, 20, 30 mg/kg combined with LDh): significant and dose-dependent reduction
- Δ to placebo, change from baseline in UHDRS TMS Dystonia ([2]; 45 mg bid, Week 26, ALL): −0.06
- Δ to placebo, change from baseline in UHDRS TMS Dystonia ([2]; 45 mg bid, Week 26, Stage 1 BL TFC 11-13): −0.99
- Δ to placebo, change from baseline in UHDRS TMS Dystonia ([2]; 45 mg bid, Week 52, Stage 1 BL TFC 11-13): −1.65
- Δ to placebo, change from baseline in UHDRS TMS Dystonia ([2]; 45 mg bid, Week 52, all pridopidine treated patients): −0.39
- Δ to placebo, change from baseline in UHDRS TMS Dystonia ([2]; 45 mg bid, week 26, BL TFC ≥9 and CAG Repeats <44 and BL TMS 1st 3 Qs): −1.53
- Δ to placebo, change from baseline in UHDRS TMS Dystonia ([2]; 45 mg bid, week 26, BL TFC≥9 AND CAG Repeats <44): −1.54
- Δ to placebo, change from baseline in UHDRS TMS Dystonia ([2]; 45 mg bid, week 26, CAG Repeats <44 AND BL TMS 1st 3 Qs): −1.04
- Δ to placebo, change from baseline in UHDRS TMS Dystonia ([2]; 67.5 mg bid, Week 26, ALL): −0.34
- Δ to placebo, change from baseline in UHDRS TMS Dystonia ([2]; 67.5 mg bid, Week 26, Stage 1 BL TFC 11-13): −0.89
- Δ to placebo, change from baseline in UHDRS TMS Dystonia ([2]; 67.5 mg bid, Week 52, Stage 1 BL TFC 11-13): −0.1
- Δ to placebo, change from baseline in UHDRS TMS Dystonia ([2]; 67.5 mg bid, Week 52, all pridopidine treated patients): −0.35
- Δ to placebo, change from baseline in UHDRS TMS Dystonia ([2]; 67.5 mg bid, week 26, BL TFC ≥9 and CAG Repeats <44 and BL TMS 1st 3 Qs): −1.6
- Δ to placebo, change from baseline in UHDRS TMS Dystonia ([2]; 67.5 mg bid, week 26, BL TFC≥9 AND CAG Repeats <44): −1.58
- Δ to placebo, change from baseline in UHDRS TMS Dystonia ([2]; 67.5 mg bid, week 26, CAG Repeats <44 AND BL TMS 1st 3 Qs): −1.15
- Δ to placebo, change from baseline in UHDRS TMS Dystonia ([2]; 90 mg bid, Week 26, ALL): −0.33
- Δ to placebo, change from baseline in UHDRS TMS Dystonia ([2]; 90 mg bid, Week 26, Stage 1 BL TFC 11-13): −1.56
- Δ to placebo, change from baseline in UHDRS TMS Dystonia ([2]; 90 mg bid, Week 52, Stage 1 BL TFC 11-13): −1.46
